Earlier results on 1 molecule are cited in PubChem BioAssay AID1259409 (Chemical Carcinogenesis Research Information System (CCRIS), 2018).

For this data set, the system named is rodent chemically induced tumor inhibition, incidence and multiplicity. The data set can be described thus: CCRIS tumor inhibitor studies. The settings on record: Carcinogen: N-METHYL-N-NITROSOUREA, 684-93-5, Route [Inhibitor]: ORAL, Species: RAT, Promoter: NONE USED.

For the molecule `CC1=C(/C=C/C(C)=C/C=C/C(C)=C/C(=O)Nc2ccc(O)cc2)C(C)(C)CCC1`, the “tumour outcome (control, treated, inhibition, significance)” value (Dose [Inhibitor]: 0, 782 MG/KG OF GRAIN-BASED WAYNE DIET FOR DURATION OF STUDY BEGINNING 7 D POST CARCINOGEN DOSE (STUDY DURATION: 25 WK), Strain/Sex: F344/FEMALE, Target Tissue: Type of Lesion: MAMMARY GLAND: TUMOR, Dose [Carcinogen]: 45 MG/KG BW ONCE AT 50 D OF AGE) is recorded as 9/25 (36%), 6/25 (24%), 33%, not significant; the “tumour outcome (control, treated, inhibition, significance)” value (Dose [Inhibitor]: 0, 782 MG/KG OF GRAIN-BASED WAYNE DIET FOR DURATION OF STUDY BEGINNING 7 D PRIOR TO CARCINOGEN DOSE (STUDY DURATION: 26, Strain/Sex: F344/FEMALE, Target Tissue: Type of Lesion: MAMMARY GLAND: TUMOR, Dose [Carcinogen]: 45 MG/KG BW ONCE AT 50 D OF AGE) was 9/25 (36%), 5/25 (20%), 44%, not significant; the “tumour outcome (control, treated, inhibition, significance)” value (Dose [Inhibitor]: 0, 786 MG/KG IN DIET FOR 26 WK BEGINNING 4 WK POST CARCINOGEN DOSE (STUDY DURATION: 31 WK), Strain/Sex: SPRAGUE-DAWLEY/FEMALE, Target Tissue: Type of Lesion: MAMMARY GLAND: ADENOCARCINOMA, Dose [Carcinogen]: 50 MG/KG ONCE) was 84%, 74%, 12%, not significant; the “tumour outcome (control, treated, inhibition, significance)” value (Dose [Inhibitor]: 0, 786 MG/KG IN DIET FOR 31 WK BEGINNING 1 WK PRIOR TO CARCINOGEN DOSE (STUDY DURATION: 31 WK), Strain/Sex: SPRAGUE-DAWLEY/FEMALE, Target Tissue: Type of Lesion: MAMMARY GLAND: ADENOCARCINOMA, Dose [Carcinogen]: 50 MG/KG ONCE) was 84%, 71%, 15%, not significant; the “tumour outcome (control, treated, inhibition, significance)” value (Dose [Inhibitor]: 0, 1173 MG/KG DIET BEGINNING AFTER THE SURGICAL REMOVAL OF THE FIRST PALPABLE TUMOR (STUDY DURATION: LIFETIME), Strain/Sex: SPRAGUE-DAWLEY/FEMALE, Target Tissue: Type of Lesion: MAMMARY GLAND: TUMOR, Dose [Carcinogen]: 35 MG/KG ONCE AT 50 DAYS OF AGE) is 93%, 88%, 5%, not calculated; the “tumour outcome (control, treated, inhibition, significance)” value (Dose [Inhibitor]: 1 MMOL/KG DIET DAILY STARTING 3 D AFTER LAST CARCINOGEN DOSE THROUGH END OF STUDY (STUDY DURATION: 129 D), Strain/Sex: SPRAGUE-DAWLEY/FEMALE, Target Tissue: Type of Lesion: MAMMARY GLAND: TUMOR, Dose [Carcinogen]: 50 MG/KG BW AT BOTH 50 AND 57 D OF AGE) is 17/17 (100%), 12/15 (80%), 20%, not significant. The “tumour outcome (control, treated, inhibition, significance)” value is listed as 12/40 (30%), 12/40 (30%), 0%, not significant (Dose [Inhibitor]: 1 MMOL/KG DIET DAILY STARTING 3 D AFTER LAST CARCINOGEN DOSE THROUGH END OF STUDY (STUDY DURATION: 182 D), Strain/Sex: SPRAGUE-DAWLEY/FEMALE, Target Tissue: Type of Lesion: MAMMARY GLAND: TUMOR, Dose [Carcinogen]: 15 MG/KG BW AT BOTH 50 AND 57 D OF AGE); 18/21 (86%), 15/30 (50%), 42%, p 0.027 (Dose [Inhibitor]: 2 MMOL/KG DIET DAILY FROM 2 D PRIOR THROUGH 12 WK AFTER CARCINOGEN DOSE FOLLOWED BY 16 WK OBSERVATION PERIOD (STUDY DURA, Strain/Sex: SPRAGUE-DAWLEY/FEMALE, Target Tissue: Type of Lesion: MAMMARY GLAND: TUMOR, Dose [Carcinogen]: 25 MG/KG BW ONCE); 18/21 (86%), 18/30 (60%), 30%, not significant (Dose [Inhibitor]: 2 MMOL/KG DIET DAILY FROM 2 D THROUGH 17 WK AFTER CARCINOGEN DOSE FOLLOWED BY 11 WK OBSERVATION PERIOD (STUDY DURATION:, Strain/Sex: SPRAGUE-DAWLEY/FEMALE, Target Tissue: Type of Lesion: MAMMARY GLAND: TUMOR, Dose [Carcinogen]: 25 MG/KG BW ONCE); 17/17 (100%), 11/17 (65%), 35%, p<0.01 (Dose [Inhibitor]: 2 MMOL/KG DIET DAILY STARTING 3 D AFTER LAST CARCINOGEN DOSE THROUGH END OF STUDY (STUDY DURATION: 129 D), Strain/Sex: SPRAGUE-DAWLEY/FEMALE, Target Tissue: Type of Lesion: MAMMARY GLAND: TUMOR, Dose [Carcinogen]: 50 MG/KG BW AT BOTH 50 AND 57 D OF AGE); 12/40 (30%), 6/40 (15%), 50%, not significant (Dose [Inhibitor]: 2 MMOL/KG DIET DAILY STARTING 3 D AFTER LAST CARCINOGEN DOSE THROUGH END OF STUDY (STUDY DURATION: 182 D), Strain/Sex: SPRAGUE-DAWLEY/FEMALE, Target Tissue: Type of Lesion: MAMMARY GLAND: TUMOR, Dose [Carcinogen]: 15 MG/KG BW AT BOTH 50 AND 57 D OF AGE); 5/39 (13%), 3/30 (10%), 23%, not significant (Dose [Inhibitor]: 2 MMOL/KG DIET DAILY STARTING 12 D AFTER CARCINOGEN TREATMENT THROUGH ABOUT 8 MO AFTER CARCINOGEN DOSE (STUDY DURATION:, Strain/Sex: F344/MALE, Target Tissue: Type of Lesion: COLON: ADENOCARCINOMA, Dose [Carcinogen]: 2.5 MG 1/WK FOR 2 WK).
